Source: publication PMC3433414, “Oral Administration of the Pimelic Diphenylamide HDAC Inhibitor HDACi 4b Is Unsuitable for Chronic Inhibition of HDAC Activity in the CNS In Vivo” (PLoS ONE, 2012)
Where two headings read alike, the source gives them in different places.

What was measured:
HDAC5 = target: T1, HDAC5 (Homo sapiens, UniProt Q9UQL6); assay: Two-step fluorogenic deacetylase assay, recombinant HDAC5; format: biochemical; settings: up to 50 µM
T1 construct: HDAC5 (αα 657–1123; cat # 50005); purchased BPS Bioscience (San Diego, CA) 50005
T1 sequence (Q9UQL6 656-1122): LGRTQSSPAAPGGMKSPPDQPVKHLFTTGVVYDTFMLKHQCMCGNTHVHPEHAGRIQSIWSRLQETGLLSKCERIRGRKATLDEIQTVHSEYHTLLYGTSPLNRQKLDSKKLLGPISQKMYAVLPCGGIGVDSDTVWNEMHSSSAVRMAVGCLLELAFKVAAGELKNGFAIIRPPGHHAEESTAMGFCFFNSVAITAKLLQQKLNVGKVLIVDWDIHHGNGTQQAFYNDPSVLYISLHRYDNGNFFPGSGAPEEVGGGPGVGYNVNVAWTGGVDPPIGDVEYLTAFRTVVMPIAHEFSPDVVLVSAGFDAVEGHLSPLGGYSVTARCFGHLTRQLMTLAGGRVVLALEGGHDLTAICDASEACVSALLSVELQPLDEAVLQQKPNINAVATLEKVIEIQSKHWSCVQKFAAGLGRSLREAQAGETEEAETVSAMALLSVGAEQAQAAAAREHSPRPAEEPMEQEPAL
Text: (§1) To assess the biochemical and cellular potency of 4b and its conversion products/metabolites, we utilized the two-step fluorogenic assay which measures the HDAC-mediated catalytic conversion of synthetic acetylated lysine substrates. In brief, on deacetylation of the substrates by HDAC activity, a protease site is unmasked which allows subsequent trypsin-mediated cleavage and release of the highly flourescent AMC molecules in a subsequent step of the assay. The substrates used were Lys_Ac_AMC (Bachem I-1875) for HDAC3 and (Ac)Arg-Gly-Lys(Ac) (Bachem I-1925) for HDAC1 and HDAC2. […] However, the relatively labile and sterically more demanding trifluoracetyl group is readily hydrolyzed by the catalytically less avid Class IIa enzymes, allowing measurement of Class IIa activity using the 2-step fluorogenic assay. […]
(§2) For evaluation of the class selectivity of the compounds, we assessed inhibition against purified recombinant human full length HDAC1 (cat# 50051), HDAC2 (cat# 50052), HDAC3-NcoR2 (cat# 50003) and HDAC8 (cat# 50008): as representative of Class I activity; catalytic domain HDAC4(αα 648–1057), HDAC5 (αα 657–1123; cat # 50005), HDAC7 (αα 518-end; cat # 50007) and HDAC9 (αα 604–1066; cat # 50009) activity: representing all Class IIa activity; and full length HDAC6 (cat#50006): representing Class IIb activity. […]

[1] = Simulated gastric fluid stability; format: in vitro ADME
Protocol: Simulated gastric fluid (SGF), pH 1.2, was prepared containing 2 g/L sodium chloride, 3.2 g/L of pepsin, 0.7% (v/v) HCl. Gastric buffer, pH 1.2, was also prepared containing 2 g/L sodium chloride and 0.7% (v/v) HCl. Test compound (10 µM) was added to both fluids and samples were mixed at room temperature on an orbital shaker. At each time-point (0, 2 and 4 h) 50 µL of sample was added to 150 µL DMSO, mixed and analysed immediately. Samples were analysed by LC-UV (λ = 254 nm. The instrument responses (i.e. chromatographic peak areas) were referenced to the zero time-point samples (as 100%) in order to determine the percentage of compound remaining at each time-point.

[2] = test system: diversity panel of 72 binding and 29 enzyme assays; assay: Cerep Diversity Profile, overall; settings: 10 µM, duplicate
Text: (§3) In addition to the HDAC profiling performed, we also queried 4b for any apparent potential off-target effects, which could complicate any finding of efficacy or adverse events in vivo due to ‘polypharmacy’. This was accomplished by screening against a ‘diversity panel’ of 72 binding and 29 enzyme assays, comprised of roughly equal numbers of selective central and peripheral therapeutically relevant targets (Cerep Diversity Profile). This panel included representative targets from diverse enzyme families, G protein coupled receptors, steroid nuclear receptors, voltage- and ligand-gated ion channels. While not totally inclusive, it is a useful tool for discovery compounds to assess their viability as proof of concept molecules to specifically query a particular target. 4b was initially screened at 10 µM in duplicate. The full set of results is provided as Table S1. […] This clean in vitro profile was considered acceptable to proceed to ADME and pharmacokinetic studies.

PR (h) = target: T2, PR (h) (Homo sapiens, UniProt P06401); assay: Cerep binding, agonist radioligand; settings: read-out: % inhibition of control specific binding
T2 construct: purchased Cerep (Diversity Profile)
T2 sequence (P06401 whole entry): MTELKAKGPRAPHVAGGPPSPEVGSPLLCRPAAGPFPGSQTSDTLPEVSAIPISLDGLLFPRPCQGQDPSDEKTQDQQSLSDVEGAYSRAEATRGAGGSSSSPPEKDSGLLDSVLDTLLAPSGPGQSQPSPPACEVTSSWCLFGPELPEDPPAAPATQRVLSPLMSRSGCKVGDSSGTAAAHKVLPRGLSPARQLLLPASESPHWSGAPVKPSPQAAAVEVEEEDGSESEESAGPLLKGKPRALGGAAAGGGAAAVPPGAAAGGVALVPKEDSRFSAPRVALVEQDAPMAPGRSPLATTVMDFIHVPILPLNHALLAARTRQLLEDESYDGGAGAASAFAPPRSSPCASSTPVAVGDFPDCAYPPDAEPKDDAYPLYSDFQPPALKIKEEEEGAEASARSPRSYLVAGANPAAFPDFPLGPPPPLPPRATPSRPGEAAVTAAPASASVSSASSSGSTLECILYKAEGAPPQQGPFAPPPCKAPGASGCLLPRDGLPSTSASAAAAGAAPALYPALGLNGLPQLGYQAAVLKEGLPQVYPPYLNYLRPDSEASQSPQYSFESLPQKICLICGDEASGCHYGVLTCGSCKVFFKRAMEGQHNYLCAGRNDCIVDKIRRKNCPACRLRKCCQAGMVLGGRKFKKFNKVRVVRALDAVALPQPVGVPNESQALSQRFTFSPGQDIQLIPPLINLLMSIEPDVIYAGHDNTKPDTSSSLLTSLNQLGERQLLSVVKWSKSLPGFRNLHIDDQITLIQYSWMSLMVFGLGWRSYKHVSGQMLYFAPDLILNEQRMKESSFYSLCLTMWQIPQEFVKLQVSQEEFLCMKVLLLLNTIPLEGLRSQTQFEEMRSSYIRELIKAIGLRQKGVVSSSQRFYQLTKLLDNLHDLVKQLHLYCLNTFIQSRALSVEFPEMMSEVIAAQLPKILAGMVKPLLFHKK
Text: as §3

TRH1 (h) = target: T3, TRH1 (h) (Homo sapiens, UniProt P34981); assay: Cerep binding, agonist radioligand; settings: read-out: % inhibition of control specific binding
T3 construct: purchased Cerep (Diversity Profile)
T3 sequence (P34981 whole entry): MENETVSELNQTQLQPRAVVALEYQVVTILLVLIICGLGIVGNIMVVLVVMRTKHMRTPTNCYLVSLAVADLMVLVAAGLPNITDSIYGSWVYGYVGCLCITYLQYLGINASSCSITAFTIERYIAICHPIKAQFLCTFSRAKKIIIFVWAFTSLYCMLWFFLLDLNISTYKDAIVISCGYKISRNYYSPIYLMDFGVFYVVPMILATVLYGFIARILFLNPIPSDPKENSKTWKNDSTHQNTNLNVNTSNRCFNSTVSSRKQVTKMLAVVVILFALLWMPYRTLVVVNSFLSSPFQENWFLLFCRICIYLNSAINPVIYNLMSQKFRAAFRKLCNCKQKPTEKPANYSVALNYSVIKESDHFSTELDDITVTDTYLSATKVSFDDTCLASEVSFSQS
Text: as §3

MC4 (h) = target: T4, MC4 (h) (Homo sapiens, UniProt P32245); assay: Cerep binding, agonist radioligand; settings: read-out: % inhibition of control specific binding
T4 construct: purchased Cerep (Diversity Profile)
T4 sequence (P32245 whole entry): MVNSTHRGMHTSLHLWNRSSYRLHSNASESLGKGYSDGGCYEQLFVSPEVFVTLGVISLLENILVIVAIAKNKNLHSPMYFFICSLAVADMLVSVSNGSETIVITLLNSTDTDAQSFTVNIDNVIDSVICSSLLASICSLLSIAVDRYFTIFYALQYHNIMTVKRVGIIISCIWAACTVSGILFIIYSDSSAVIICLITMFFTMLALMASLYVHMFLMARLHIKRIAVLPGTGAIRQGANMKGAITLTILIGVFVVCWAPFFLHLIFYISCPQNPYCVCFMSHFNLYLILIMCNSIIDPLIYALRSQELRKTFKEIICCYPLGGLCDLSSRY
Text: as §3

HDAC7 = target: T5, HDAC7 (Homo sapiens, UniProt Q8WUI4); assay: Two-step fluorogenic deacetylase assay, recombinant HDAC7; format: biochemical; settings: up to 50 µM
T5 construct: HDAC7 (αα 518-end; cat # 50007); purchased BPS Bioscience (San Diego, CA) 50007
T5 sequence (Q8WUI4 518-952 limits assumed): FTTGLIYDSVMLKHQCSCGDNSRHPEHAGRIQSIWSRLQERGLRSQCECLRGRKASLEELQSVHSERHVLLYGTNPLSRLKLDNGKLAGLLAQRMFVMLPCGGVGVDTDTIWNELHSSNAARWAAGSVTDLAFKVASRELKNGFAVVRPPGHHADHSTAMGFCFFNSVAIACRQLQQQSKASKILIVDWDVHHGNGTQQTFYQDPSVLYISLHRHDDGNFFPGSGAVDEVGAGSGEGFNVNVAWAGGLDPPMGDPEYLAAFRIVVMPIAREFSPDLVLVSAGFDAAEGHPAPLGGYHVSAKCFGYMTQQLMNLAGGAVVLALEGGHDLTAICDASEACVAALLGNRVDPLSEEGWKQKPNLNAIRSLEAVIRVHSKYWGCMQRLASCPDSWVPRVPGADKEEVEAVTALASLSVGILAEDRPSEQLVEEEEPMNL
Text: as §1, §2

[3] = test system: histone acetylation in mouse brain; assay: Histone acetylation in brain tissue (central pharmacodynamics); settings: 150 mg/kg po bid, five consecutive days; 1 h post last dose
Protocol: Cortical tissue from the mice was assessed using specific antibodies for increases in acetylation of specific lysine residues on Histones H3 (H3K4, H3K9, H3K14) and H4 (H4K5) as well as global acetylation of H3 (Ac-H3) and H4 (Ac-H4). The acetylation level was normalized to total H3 and H4 expression level. The samples from the rest of the brain were analyzed for terminal 4b levels at the time of sacrifice. […] Mouse brains were harvested, dissected, immediately frozen in liquid nitrogen and stored at −80°C. Mouse brain tissue was homogenized (polytron homogenizer, 20 s) in 2 volumes of histone extraction buffer (1×PBS, 5% Triton X-100 (v/v), 3 mM DTT, 1 mM orthovanadate, 5 mM NaF, 1 mM PMSF, 5 mM Na Butyrate, Roche complete protease inhibitor tablet) and centrifuged at 900 g for 8 min at 4°C. The resulting pellet was washed twice in 1 ml of histone extraction buffer before being re-suspended in 2–3 volumes of 0.2 M HCl. Samples were then vortexed briefly and left to shake vigorously for 3 h at 4°C using a VXR Vibrax 1.5 ml polypropylene tube shaker (IKA). After shaking, samples were centrifuged at 900 g for 8 min at 4°C and the resulting supernatant was retained and neutralized with 0.2 volumes of 1 M NaOH.

Row | SMILES | activity against HDAC5 (HDAC5) | turnover in simulated gastric fluid ([1]; in 4 h) [%] | half-life at 10 µM ([1]; simulated gastric fluid (SGF), pH 1.2) [h] | off-target profile in the Cerep Diversity Profile [2] | inhibition at 10 µM (PR (h)) [%] | inhibition at 10 µM (TRH1 (h)) [%] | inhibition at 10 µM (MC4 (h)) [%] | activity against HDAC7 (HDAC7) | histone acetylation in cortical tissue (H3K4, H3K9, H3K14, H4K5, Ac-H3, Ac-H4) [3] | inhibition at 10 µM (PR (h); 10 μM) [%] | inhibition at 10 µM (TRH1 (h); 10 μM) [%] | inhibition at 10 µM (MC4 (h); 10 μM) [%]
1 | Nc1ccccc1NC(=O)CCCCCC(=O)Nc1ccccc1 [Compound 4b] | No activity | 5 | > 10 | clean | 0 | 9 | 1 | No activity | failed to enhance histone acetylation | – | – | –
2 | O=C(CCCCCc1nc2ccccc2[nH]1)Nc1ccccc1 [Compound C1, 6-(1-H-benzo[d]imidazol-2-yl)-N-phenylhexanamide] | – | – | – | – | – | – | – | – | – | 1 | 1 | 0
